Assay results as given in patent US8415469B2, “Compounds and methods for kinase modulation, and indications therefor” (Plexxikon Inc., priority 2005, dated 2013).

Experiments:
Type in all cases: biochemical
Stk6 = target: T1, Stk6 (Homo sapiens, UniProt O14965); assay: Z'-Lyte FRET kinase assay (Invitrogen), Stk6; details: read-out: IC50, activity toward kinase Stk6
T1 construct: purchased Invitrogen (Carlsbad, Calif.), screening service
T1 sequence (O14965 1-403): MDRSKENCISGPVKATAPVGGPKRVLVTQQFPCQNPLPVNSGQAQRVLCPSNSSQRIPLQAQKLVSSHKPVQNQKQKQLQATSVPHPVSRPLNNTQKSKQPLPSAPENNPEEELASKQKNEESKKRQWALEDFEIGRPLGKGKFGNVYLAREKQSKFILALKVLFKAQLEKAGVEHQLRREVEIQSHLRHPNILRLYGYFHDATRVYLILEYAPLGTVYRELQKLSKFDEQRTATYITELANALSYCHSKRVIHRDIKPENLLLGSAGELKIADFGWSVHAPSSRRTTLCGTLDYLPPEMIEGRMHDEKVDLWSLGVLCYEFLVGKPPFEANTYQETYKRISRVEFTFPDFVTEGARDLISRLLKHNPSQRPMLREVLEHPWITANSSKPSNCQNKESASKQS

Erk2 = target: T2, Erk2 (Homo sapiens, UniProt P28482); assay: AlphaScreen kinase assay, Erk2; details: read-out: IC50, activity toward kinase Erk2
T2 construct: P4227.pET15S ERK2/MEK1DD; His6 with thrombin site (N); made in house
T2 sequence (P28482 with tags, fused parts or gaps): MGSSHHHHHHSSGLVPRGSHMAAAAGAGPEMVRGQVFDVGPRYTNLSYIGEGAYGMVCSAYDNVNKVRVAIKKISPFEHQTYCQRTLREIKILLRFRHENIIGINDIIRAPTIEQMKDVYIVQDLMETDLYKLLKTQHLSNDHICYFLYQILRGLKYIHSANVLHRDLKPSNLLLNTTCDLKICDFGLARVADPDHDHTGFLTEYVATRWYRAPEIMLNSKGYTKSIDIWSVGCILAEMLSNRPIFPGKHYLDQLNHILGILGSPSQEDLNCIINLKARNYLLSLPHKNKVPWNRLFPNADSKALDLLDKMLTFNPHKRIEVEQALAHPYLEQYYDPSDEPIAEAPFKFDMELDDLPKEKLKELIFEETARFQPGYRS
Source text: AlphaScreen assay was used to screen additional kinases. The assay is similarly dependent on the phosphorylation of a peptide substrate. In this assay, an antibody that recognizes phosphorylated substrate is bound to an acceptor bead. The peptide substrate is attached to biotin, which binds to a donor head that contains streptavidin. Thus phosphorylated substrate is bound by antibody and streptavidin, bringing the donor and acceptor heads into close proximity when kinase is not inhibited. The donor produces singlet oxygen which results in emission from the acceptor when they are in close proximity. Conversely, when kinase is inhibited, the donor and acceptor beads are not associated and the emission from the acceptor is reduced.
AlphaScreen assays were done using compounds dissolved in DMSO to a concentration of 20 mM. The compounds were diluted accordingly to the desired final concentrations in each sample well, using 1:3 serial dilution for a total of 8 concentration points.

Gsk3β = Gsk3β (Homo sapiens, UniProt P49841); assay: AlphaScreen kinase assay, Gsk3β; details: read-out: IC50, activity toward kinase Gsk3β
Summary of the method: (§1)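 Inhibition reads as diminished acceptor emission, since unphosphorylated peptide fails to bridge antibody acceptor beads and streptavidin donor beads. Titration: eight points, 1:3 steps, stocks at 20 mM in DMSO.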

Plk1 = Plk1 (Homo sapiens, UniProt P53350); assay: AlphaScreen kinase assay, Plk1; details: read-out: IC50, activity toward kinase Plk1
Sequence of Plk1 (P53350 whole entry): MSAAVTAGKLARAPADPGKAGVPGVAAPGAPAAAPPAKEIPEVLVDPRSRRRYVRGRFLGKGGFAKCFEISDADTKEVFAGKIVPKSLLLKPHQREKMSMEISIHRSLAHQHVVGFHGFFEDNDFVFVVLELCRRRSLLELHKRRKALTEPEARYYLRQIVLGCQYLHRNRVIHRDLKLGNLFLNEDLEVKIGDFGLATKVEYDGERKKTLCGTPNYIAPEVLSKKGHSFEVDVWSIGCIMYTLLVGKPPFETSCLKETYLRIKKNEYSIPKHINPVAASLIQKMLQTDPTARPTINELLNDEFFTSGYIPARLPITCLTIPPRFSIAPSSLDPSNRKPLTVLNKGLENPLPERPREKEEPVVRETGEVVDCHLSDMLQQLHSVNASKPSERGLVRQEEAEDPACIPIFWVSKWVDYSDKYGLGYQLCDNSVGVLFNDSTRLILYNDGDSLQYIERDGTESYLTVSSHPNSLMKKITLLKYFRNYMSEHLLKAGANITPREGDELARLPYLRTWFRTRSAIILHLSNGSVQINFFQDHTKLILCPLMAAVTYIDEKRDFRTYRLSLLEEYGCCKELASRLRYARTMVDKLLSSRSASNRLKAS
Summary of the method: as §1

Akt3 = Akt3 (Homo sapiens, UniProt Q9Y243); assay: AlphaScreen kinase assay, Akt3; details: read-out: IC50, activity toward kinase Akt3
Summary of the method: as §1

Kit = target: T3, Kit (Homo sapiens, UniProt P10721); assay: AlphaScreen kinase assay, Kit; details: read-out: IC50, activity toward kinase Kit
T3 construct: P1332.N6 BI PTP KIT M552-K948-X COD; His6 (N); made in house; host or cells: E. coli (PTP1B co-expressed)
T3 sequence (P10721 with tags, fused parts or gaps): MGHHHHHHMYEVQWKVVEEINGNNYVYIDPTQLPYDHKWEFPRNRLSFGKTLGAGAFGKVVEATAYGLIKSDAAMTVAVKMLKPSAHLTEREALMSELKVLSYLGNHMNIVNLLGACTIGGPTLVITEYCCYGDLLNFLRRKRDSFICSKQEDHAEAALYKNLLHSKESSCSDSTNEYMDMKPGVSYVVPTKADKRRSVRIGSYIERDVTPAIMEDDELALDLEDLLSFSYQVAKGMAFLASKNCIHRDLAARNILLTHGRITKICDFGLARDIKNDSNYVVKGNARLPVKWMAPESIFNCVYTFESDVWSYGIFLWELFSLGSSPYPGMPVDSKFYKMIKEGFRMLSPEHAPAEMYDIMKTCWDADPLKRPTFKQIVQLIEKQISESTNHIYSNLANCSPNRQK

Flt1 = target: T4, Flt1 (Homo sapiens, UniProt P17948); assay: AlphaScreen kinase assay, Flt1; details: read-out: IC50, activity toward kinase Flt1
T4 construct: P1826.pETN6 BI-PTP FLT1 M799-D1165-X WT; His6 (N); made in house; host or cells: E. coli (PTP1B co-expressed)
T4 sequence (P17948 with tags, fused parts or gaps): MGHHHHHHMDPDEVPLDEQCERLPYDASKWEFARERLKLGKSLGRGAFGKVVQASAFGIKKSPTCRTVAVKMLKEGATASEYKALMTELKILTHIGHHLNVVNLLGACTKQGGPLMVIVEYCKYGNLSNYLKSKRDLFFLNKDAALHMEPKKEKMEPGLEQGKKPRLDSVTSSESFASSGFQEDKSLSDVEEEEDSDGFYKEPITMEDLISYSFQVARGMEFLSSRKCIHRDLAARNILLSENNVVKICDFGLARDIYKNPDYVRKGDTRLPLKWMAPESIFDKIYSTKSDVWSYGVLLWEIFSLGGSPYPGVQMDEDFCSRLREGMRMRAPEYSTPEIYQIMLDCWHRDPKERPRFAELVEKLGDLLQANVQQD

IGF1R = IGF1R (Homo sapiens, UniProt P08069); assay: AlphaScreen kinase assay, IGF1R; details: read-out: IC50, activity toward kinase IGF1R
Flt4 = target: T5, Flt4 (Homo sapiens, UniProt P35916); assay: AlphaScreen kinase assay, Flt4; details: read-out: IC50, activity toward kinase Flt4
T5 construct: purchased ProQinase GmbH (Freiburg, Germany)
Summary of the method: as §1

Jnk3 = target: T6, Jnk3 (Homo sapiens, UniProt P53779); assay: AlphaScreen kinase assay, Jnk3; details: read-out: IC50, activity toward kinase Jnk3
T6 construct: purchased Upstate Biotechnology
T6 sequence (P53779 whole entry): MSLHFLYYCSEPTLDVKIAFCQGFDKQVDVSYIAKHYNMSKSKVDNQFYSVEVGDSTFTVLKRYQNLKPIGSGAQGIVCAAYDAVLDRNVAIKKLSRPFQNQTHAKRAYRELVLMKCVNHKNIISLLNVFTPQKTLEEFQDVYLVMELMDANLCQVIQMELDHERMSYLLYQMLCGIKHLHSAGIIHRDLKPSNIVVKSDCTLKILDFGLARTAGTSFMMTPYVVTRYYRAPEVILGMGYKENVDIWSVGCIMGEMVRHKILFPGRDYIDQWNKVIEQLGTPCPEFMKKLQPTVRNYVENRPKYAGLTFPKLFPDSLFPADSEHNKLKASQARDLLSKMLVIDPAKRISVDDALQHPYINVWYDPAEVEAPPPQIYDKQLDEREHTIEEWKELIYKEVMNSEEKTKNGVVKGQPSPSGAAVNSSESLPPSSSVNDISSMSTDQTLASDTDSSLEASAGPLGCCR

Src = target: T7, Src (Homo sapiens, UniProt P12931); assay: AlphaScreen kinase assay, Src; details: read-out: IC50, activity toward kinase Src
T7 construct: P1144. pET-N6 BI-PTP SRC V86-L536-X; made in house

Abl = target: T8, Abl (Homo sapiens, UniProt P00519); assay: AlphaScreen kinase assay, Abl; details: read-out: activity toward kinase Abl, IC50
T8 construct: P1121. pET-SPEC BI-PTP Abl G227-V515-X; His6 (N); made in house; host or cells: E. coli (PTP1B co-expressed)
T8 sequence (P00519 with tags, fused parts or gaps): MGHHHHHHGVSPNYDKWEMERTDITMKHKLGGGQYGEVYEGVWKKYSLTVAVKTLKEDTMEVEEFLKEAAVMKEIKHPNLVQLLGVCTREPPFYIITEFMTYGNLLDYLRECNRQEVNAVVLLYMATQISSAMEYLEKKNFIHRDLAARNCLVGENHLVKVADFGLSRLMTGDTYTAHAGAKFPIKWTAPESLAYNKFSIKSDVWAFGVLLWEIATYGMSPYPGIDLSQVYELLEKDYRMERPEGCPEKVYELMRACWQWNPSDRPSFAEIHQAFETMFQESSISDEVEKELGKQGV
Summary of the method: as §1

Kdr = target: T9, Kdr (Homo sapiens, UniProt P35968); assay: Z'-Lyte FRET kinase assay (Invitrogen), Kdr; details: read-out: IC50, activity toward kinase Kdr
T9 construct: purchased Invitrogen (assay run by Invitrogen)
T9 sequence (P35968 20-1356): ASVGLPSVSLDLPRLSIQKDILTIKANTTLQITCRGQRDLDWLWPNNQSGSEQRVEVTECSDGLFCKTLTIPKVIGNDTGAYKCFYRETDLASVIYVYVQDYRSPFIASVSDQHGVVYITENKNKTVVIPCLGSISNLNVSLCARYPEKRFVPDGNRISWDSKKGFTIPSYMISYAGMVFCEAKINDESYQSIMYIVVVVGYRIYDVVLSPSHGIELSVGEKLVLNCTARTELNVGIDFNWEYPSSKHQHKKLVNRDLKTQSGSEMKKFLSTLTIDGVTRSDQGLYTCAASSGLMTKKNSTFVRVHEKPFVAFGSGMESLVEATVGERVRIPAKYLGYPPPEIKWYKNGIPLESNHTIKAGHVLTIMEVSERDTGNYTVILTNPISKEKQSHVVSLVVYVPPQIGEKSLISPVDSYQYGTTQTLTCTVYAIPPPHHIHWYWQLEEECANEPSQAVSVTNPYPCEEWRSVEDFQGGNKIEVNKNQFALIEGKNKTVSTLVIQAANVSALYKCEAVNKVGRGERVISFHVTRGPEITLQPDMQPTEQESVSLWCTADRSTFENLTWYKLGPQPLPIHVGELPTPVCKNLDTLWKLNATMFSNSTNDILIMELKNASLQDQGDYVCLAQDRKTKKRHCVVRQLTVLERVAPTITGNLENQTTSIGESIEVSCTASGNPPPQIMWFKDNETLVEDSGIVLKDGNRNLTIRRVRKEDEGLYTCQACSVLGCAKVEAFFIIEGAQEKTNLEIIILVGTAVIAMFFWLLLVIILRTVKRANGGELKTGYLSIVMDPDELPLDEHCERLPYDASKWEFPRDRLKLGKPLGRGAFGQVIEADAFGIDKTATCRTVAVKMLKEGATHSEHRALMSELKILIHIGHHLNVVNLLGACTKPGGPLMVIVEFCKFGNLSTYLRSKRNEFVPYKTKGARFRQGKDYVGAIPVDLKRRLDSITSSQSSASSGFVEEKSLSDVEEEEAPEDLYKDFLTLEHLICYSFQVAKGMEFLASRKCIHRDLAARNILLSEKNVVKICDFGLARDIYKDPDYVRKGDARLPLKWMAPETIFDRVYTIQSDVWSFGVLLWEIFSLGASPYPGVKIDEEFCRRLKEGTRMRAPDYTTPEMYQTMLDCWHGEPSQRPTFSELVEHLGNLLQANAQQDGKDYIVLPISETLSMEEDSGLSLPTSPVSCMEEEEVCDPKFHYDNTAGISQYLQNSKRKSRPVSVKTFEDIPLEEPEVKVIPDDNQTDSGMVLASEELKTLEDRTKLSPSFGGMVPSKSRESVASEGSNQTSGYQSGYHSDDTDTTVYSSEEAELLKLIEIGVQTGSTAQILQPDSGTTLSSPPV

Zap70 = target: T10, Zap70 (Homo sapiens, UniProt P43403); assay: AlphaScreen kinase assay, Zap70; details: read-out: IC50, activity toward kinase Zap70
T10 construct: P1868.pFastBac1 ZAP70 D327-G606 HIS, WT; His7 (HHHHHHH) (C); made in house
T10 sequence (P43403 with tags, fused parts or gaps): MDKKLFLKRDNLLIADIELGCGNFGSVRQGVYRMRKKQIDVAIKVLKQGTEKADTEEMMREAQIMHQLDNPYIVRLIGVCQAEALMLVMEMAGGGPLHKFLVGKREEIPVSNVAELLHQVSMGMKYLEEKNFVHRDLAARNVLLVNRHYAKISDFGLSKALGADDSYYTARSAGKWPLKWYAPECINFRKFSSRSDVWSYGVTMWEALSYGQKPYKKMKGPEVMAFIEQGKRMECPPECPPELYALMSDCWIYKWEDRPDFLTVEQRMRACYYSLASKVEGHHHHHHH
Summary of the method: as §1

B-Raf = target: T11, B-Raf (Homo sapiens, UniProt P15056); assay: AlphaScreen kinase assay, B-Raf; details: read-out: IC50, activity toward kinase B-Raf
T11 construct: purchased Upstate Biotechnology

Ret = target: T12, Ret (Homo sapiens, UniProt P07949); assay: AlphaScreen kinase assay, Ret; details: read-out: IC50, activity toward kinase Ret
T12 construct: P1378.pET-SF BI-PTP RET H661-R1012 HIS; made in house
T12 sequence (P07949 with tags, fused parts or gaps): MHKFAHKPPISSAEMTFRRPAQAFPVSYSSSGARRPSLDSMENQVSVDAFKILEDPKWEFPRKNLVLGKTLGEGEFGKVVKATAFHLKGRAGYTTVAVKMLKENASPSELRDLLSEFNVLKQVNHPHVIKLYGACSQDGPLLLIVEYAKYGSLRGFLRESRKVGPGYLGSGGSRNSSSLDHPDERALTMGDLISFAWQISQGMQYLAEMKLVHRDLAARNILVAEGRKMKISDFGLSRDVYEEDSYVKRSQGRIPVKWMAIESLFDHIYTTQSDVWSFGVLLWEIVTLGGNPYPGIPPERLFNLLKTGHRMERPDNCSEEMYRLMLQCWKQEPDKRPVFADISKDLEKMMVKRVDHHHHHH

B-Raf V600E = target: T13, B-Raf V600E (Homo sapiens, UniProt P15056, V600E); assay: AlphaScreen kinase assay, B-Raf V600E; details: read-out: IC50, activity toward kinase B-Raf V600E
T13 construct: P4254. pFastBacBD-CDC37 BRAF D437-K722-X, V600E; His6 with pFastBac HT leader (TEV site) (N); made in house; host or cells: Sf9 (baculovirus; chaperone CDC37 co-expressed)

FGFR1 = target: T14, FGFR1 (Homo sapiens, UniProt P11362, C488A/C584S); assay: AlphaScreen kinase assay, FGFR1; details: read-out: IC50, activity toward kinase FGFR
T14 construct: P1351.pET N6 BI-PTP FGFR A458-E765-X C488A, C584S; made in house; host or cells: E. coli (PTP1B co-expressed)
T14 sequence (P11362 458-765 C488A/C584S): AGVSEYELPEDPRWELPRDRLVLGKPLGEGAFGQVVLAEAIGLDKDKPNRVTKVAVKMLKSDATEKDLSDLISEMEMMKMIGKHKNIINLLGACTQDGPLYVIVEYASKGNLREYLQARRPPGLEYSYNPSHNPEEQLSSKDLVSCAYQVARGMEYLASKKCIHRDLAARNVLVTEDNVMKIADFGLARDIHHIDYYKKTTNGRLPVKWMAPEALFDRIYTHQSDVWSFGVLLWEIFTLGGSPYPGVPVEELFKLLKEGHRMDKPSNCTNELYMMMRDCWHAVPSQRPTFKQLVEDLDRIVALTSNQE

Pyk2 = target: T15, Pyk2 (Homo sapiens, UniProt Q14289); assay: AlphaScreen kinase assay, Pyk2; details: read-out: IC50, activity toward kinase Pyk2
T15 construct: purchased Upstate Biotechnology
T15 sequence (Q14289 whole entry): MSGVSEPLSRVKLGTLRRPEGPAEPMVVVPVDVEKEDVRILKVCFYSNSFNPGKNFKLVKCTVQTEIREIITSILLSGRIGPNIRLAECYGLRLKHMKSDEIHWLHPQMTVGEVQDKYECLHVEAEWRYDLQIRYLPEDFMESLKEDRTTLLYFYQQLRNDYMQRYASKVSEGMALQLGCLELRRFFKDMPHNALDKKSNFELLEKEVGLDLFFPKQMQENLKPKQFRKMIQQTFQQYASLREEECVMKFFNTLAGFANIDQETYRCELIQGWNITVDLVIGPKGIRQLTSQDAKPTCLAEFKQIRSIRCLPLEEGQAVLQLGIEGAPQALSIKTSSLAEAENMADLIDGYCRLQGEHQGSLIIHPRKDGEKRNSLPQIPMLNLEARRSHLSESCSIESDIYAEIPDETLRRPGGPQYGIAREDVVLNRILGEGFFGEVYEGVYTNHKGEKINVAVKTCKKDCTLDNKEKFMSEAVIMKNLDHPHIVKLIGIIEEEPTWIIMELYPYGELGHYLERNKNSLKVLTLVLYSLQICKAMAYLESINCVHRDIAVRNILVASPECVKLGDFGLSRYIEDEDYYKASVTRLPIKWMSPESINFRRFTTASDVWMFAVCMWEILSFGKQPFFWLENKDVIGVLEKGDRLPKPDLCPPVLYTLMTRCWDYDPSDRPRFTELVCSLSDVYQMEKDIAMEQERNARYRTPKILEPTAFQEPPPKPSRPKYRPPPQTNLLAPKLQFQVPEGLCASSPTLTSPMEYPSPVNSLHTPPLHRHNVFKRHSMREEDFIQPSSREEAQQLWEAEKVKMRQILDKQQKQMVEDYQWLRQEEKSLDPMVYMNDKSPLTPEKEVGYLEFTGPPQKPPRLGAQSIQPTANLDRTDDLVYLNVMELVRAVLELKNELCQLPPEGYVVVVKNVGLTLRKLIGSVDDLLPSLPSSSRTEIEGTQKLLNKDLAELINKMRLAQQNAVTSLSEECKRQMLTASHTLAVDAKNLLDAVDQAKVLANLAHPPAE

Met = target: T16, Met (Homo sapiens, UniProt P08581); assay: AlphaScreen kinase assay, Met; details: read-out: IC50, activity toward kinase Met
T16 construct: P1818.pETN6 BI-PTP MET G1056-G1364-X WT; His6 (N); made in house; host or cells: E. coli (PTP1B co-expressed)
Summary of the method: as §1

Fak = target: T17, Fak (Homo sapiens, UniProt Q05397); assay: AlphaScreen kinase assay, Fak; details: read-out: IC50, activity toward kinase Fak
T17 construct: P1358.pFastBacHtb FAK S411-Q686-X; His6 with pFastBacHTb leader (TEV site) (N); made in house; host or cells: Sf9 (baculovirus)

Yes = target: T18, Yes (Homo sapiens, UniProt P07947); assay: Z'-Lyte FRET kinase assay (Invitrogen), Yes; details: read-out: IC50, activity toward kinase Yes
T18 construct: purchased Invitrogen (Carlsbad, Calif.), screening service
Summary of the method: (§2)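 Z′-Lyte FRET assay: kinase phosphorylates 2 μM peptide substrate at 10 μM ATP in 50 mM HEPES pH 7.5, 50 mM MgCl2, 5 mM EGTA, 0.05% BRIJ-35, 1% DMSO, 1 h at room temperature. Protease development 1 h; coumarin/fluorescein emission ratio gives phosphorylation extent over compound concentration curves.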

Btk = target: T19, Btk (Homo sapiens, UniProt Q06187); assay: Z'-Lyte FRET kinase assay (Invitrogen), Btk; details: read-out: IC50, activity toward kinase Btk
T19 construct: purchased Invitrogen (assay run by Invitrogen)
Source text: (§3) For example, direct radiometric, indirect FRET or AlphaScreen assays may be used to assess the level of phosphorylation of a substrate in the presence of test compounds in order to determine the inhibitory affect of the compound on the kinase. […] For these assays, compounds of the invention were screened by Invitrogen using Z′-Lyte™ kinase assay.
(§4) Briefly, the Invitrogen kinase assay involves use of a specific peptide substrate optimized for each kinase, containing a fluorophore at each end that make up the FRET pair. The peptide sensitivity to proteolytic cleavage depends on phosphorylation of the peptide. Non-phosphorylated peptide is cleaved by a protease while peptide phosphorylated by the kinase is not cleaved. Cleavage of the peptide disrupts the FRET between the donor (coumarin) and acceptor (fluorescein) fluorophores, resulting in an increase in the ratio of donor emission to acceptor emission. The emission ratio of coumarin to fluorescein is used to assess the reaction progress. […] Thus, the assay involves a kinase reaction in the presence of varying concentrations of a given compound, a development reaction with site specific protease, and detection of the fluorescent emission ratio of coumarin and fluorscein. […] Reaction conditions for each kinase are determined to provide optimal reaction times, incubation temperature, kinase and ATP concentrations. Test samples are made up in 1× kinase buffer (50 mM HEPES pH 7.5, 50 mM MgCl2, 5 mM EGTA, 0.05% BRIJ-35) and compound at desired concentration prepared in DMSO such that the final DMSO is 1%. […] All kinase except for MAP2K1 were at 10 μM ATP in the kinase reaction, while MAP2K1 was at 100 μM. Samples are mixed and the kinase reaction is incubated 1 hour at room temperature, after which 5 μl of development solution is added and mixed. After incubation for another 1 hour at room temperature, 5 μl of stop reagent is added to each sample and mixed. The fluorescence signals are measured to determine the emission ratio.

MAP2K1 = target: T20, MAP2K1 (Homo sapiens, UniProt Q02750); assay: Z'-Lyte FRET kinase assay (Invitrogen), MAP2K1; details: read-out: IC50, activity toward kinase MAP2K1
T20 construct: purchased Invitrogen (assay run by Invitrogen)
T20 sequence (Q02750 whole entry): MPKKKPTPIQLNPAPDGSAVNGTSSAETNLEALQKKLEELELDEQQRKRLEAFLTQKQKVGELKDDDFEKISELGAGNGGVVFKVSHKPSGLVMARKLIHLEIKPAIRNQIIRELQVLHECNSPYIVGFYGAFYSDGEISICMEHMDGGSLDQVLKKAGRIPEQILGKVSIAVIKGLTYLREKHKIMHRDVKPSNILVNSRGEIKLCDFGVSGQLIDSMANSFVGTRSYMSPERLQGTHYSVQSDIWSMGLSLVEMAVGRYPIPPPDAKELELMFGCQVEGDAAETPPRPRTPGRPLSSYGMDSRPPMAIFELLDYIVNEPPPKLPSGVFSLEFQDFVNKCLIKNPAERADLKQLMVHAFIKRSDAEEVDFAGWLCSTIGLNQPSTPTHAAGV
Source text: as §3, §4

PKC theta = target: T21, PKC theta (Homo sapiens, UniProt Q04759); assay: Z'-Lyte FRET kinase assay (Invitrogen), PKC theta; details: read-out: IC50, activity toward kinase PKC theta
T21 construct: purchased Invitrogen (Carlsbad, Calif.), screening service
Summary of the method: as §2

Itk = target: T22, Itk (Homo sapiens, UniProt Q08881); assay: AlphaScreen kinase assay, Itk; details: read-out: IC50, activity toward kinase Itk
T22 sequence (Q08881 1-620): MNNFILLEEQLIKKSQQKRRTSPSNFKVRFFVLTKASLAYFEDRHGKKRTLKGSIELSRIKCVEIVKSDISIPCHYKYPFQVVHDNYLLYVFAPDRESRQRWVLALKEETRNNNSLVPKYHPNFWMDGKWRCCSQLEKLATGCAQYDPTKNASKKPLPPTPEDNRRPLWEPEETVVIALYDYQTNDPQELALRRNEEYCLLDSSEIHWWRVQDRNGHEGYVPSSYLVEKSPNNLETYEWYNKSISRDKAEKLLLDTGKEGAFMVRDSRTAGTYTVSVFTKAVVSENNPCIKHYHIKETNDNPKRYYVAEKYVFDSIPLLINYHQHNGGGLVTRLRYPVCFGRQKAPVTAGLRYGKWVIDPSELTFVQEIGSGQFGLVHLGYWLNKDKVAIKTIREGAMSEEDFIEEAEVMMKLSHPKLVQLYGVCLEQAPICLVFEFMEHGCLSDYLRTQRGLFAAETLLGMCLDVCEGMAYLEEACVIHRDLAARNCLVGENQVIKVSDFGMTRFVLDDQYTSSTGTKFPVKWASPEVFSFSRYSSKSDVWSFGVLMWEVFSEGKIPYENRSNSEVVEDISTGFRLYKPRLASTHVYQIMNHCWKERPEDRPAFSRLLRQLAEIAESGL
Summary of the method: as §1

Measured: IC50

Cc1cccc(-c2ccnc3[nH]cc(CNS(=O)(=O)C(F)(F)F)c23)c1 [Compound P-0154]
≤ 10 µM: Stk6 | Erk2 | Gsk3β | Plk1 | Akt3 | Kit | Flt1 | IGF1R

O=S(=O)(NCc1c[nH]c2ncccc12)c1cc(Cl)c(Cl)s1 [Compound P-0550]
not listed: Stk6 | Gsk3β | Plk1 | Akt3 | IGF1R | Fak | Yes | Btk | MAP2K1 | PKC theta | Itk
≤ 10 µM: all other assays above

O=S(=O)(NCc1c[nH]c2ncccc12)c1ccc(N2CCOCC2)nc1 [Compound P-0611]
≤ 10 µM: Erk2 | Fak | Abl | Kdr | Zap70 | Ret | Kit | FGFR1 | Pyk2

Cc1cc(C)cc(-c2ccnc3[nH]cc(C=O)c23)c1 [Compound P-0031]
≤ 10 µM: Yes | Stk6 | Jnk3 | Erk2 | Btk | Plk1 | Kdr | MAP2K1 | PKC theta | Kit | Itk | IGF1R
